Laboratory results as given in ChEMBL document CHEMBL2203021, “The synthesis and biological evaluation of novel Danshensu-cysteine analog conjugates as cardiovascular-protective agents” (2012).
The source made the active and inactive calls. The rule behind the calls is not given here.

Experiments:
HUVEC [1] = assay: Inhibition of H2O2-induced cytotoxicity in HUVEC cells assessed as cell viability at 5 to 100 umol/L incubated 4 hrs prior to H2O2 challenge measured after 12 hrs by MTT assay; assay type: functional, cell-based; details: Homo sapiens
HUVEC [2] = assay: Inhibition of H2O2-induced cytotoxicity in HUVEC cells assessed as LDH release at 50 umol/L incubated 4 hrs prior to H2O2 challenge measured after 12 hrs by LDH assay; assay type: functional, cell-based; details: Homo sapiens
HUVEC [3] = assay: Antioxidant activity against H2O2-induced lipid accumulation in HUVEC cells assessed as reduction in MDA level at 50 umol/L incubated 4 hrs prior to H2O2 challenge measured after 12 hrs; assay type: functional, cell-based; details: Homo sapiens
HUVEC [4] = assay: Antioxidant activity in HUVEC cells assessed as […] in H2O2-induced GSH activity at 50 umol/L incubated 4 hrs prior to H2O2 challenge measured after 12 hrs; assay type: functional, cell-based; details: Homo sapiens
HUVEC [5] = assay: Inhibition of H2O2-induced cytotoxicity in HUVEC cells assessed as cell viability at 5 mmol/L incubated 4 hrs prior to H2O2 challenge measured after 12 hrs by MTT assay; assay type: functional, cell-based; details: Homo sapiens
HUVEC [6] = assay: Inhibition of H2O2-induced cytotoxicity in HUVEC cells assessed as LDH release at 5 mmol/L incubated 4 hrs prior to H2O2 challenge measured after 12 hrs by LDH assay; assay type: functional, cell-based; details: Homo sapiens
HUVEC [7] = assay: Antioxidant activity against H2O2-induced lipid accumulation in HUVEC cells assessed as reduction in MDA level at 5 mmol/L incubated 4 hrs prior to H2O2 challenge measured after 12 hrs; assay type: functional, cell-based; details: Homo sapiens
HUVEC [8] = assay: Antioxidant activity in HUVEC cells assessed as […] in H2O2-induced GSH activity at 5 mmol/L incubated 4 hrs prior to H2O2 challenge measured after 12 hrs; assay type: functional, cell-based; details: Homo sapiens
HUVEC [9] = assay: Antioxidant activity against H2O2-induced lipid accumulation in HUVEC cells assessed as reduction in MDA level incubated 4 hrs prior to H2O2 challenge measured after 12 hrs; assay type: functional, cell-based; details: Homo sapiens
HUVEC [10] = assay: Inhibition of H2O2-induced cytotoxicity in HUVEC cells assessed as LDH release incubated 4 hrs prior to H2O2 challenge measured after 12 hrs by LDH assay; assay type: functional, cell-based; details: Homo sapiens
HUVEC [11] = assay: Antioxidant activity against in HUVEC cells assessed as […] in H2O2-induced GSH activity incubated 4 hrs prior to H2O2 challenge measured after 12 hrs; assay type: functional, cell-based; details: Homo sapiens
HUVEC [12] = assay: Antiapoptotic activity in HUVEC cells assessed as inhibition of H2O2-induced mitochondrial membrane potential reduction by JC-1 staining; assay type: functional, cell-based; details: Homo sapiens
HUVEC [13] = assay: Antiapoptotic activity in HUVEC cells assessed as reduction in H2O2-induced nuclei-shrunk by Hoechst staining; assay type: functional, cell-based; details: Homo sapiens
HUVEC [14] = assay: Antiapoptotic activity in HUVEC cells assessed as reduction in H2O2-induced nuclear condensation by hoechst staining; assay type: functional, cell-based; details: Homo sapiens
HUVEC [15] = assay: Antiapoptotic activity against H2O2-induced HUVEC cells assessed as reduction in late apoptotic cells after 4 hrs by annexin V-FITC/propidium iodide staining-based flow cytometry; assay type: functional, cell-based; details: Homo sapiens
HUVEC [16] = assay: Antiapoptotic activity against H2O2-induced HUVEC cells assessed as reduction in total apoptotic cells at 5 umol/L after 4 hrs by annexin V-FITC/propidium iodide staining-based flow cytometry; assay type: functional, Homo sapiens; design: scale not given: the % may be the effect or the level left
HUVEC [17] = assay: Antiapoptotic activity against H2O2-induced HUVEC cells assessed as reduction in total apoptotic cells at 50 umol/L after 4 hrs by annexin V-FITC/propidium iodide staining-based flow cytometry; assay type: functional, Homo sapiens; design: scale not given: the % may be the effect or the level left
HUVEC [18] = assay: Antiapoptotic activity against H2O2-induced HUVEC cells assessed as reduction in total apoptotic cells at 100 umol/L after 4 hrs by annexin V-FITC/propidium iodide staining-based flow cytometry; assay type: functional, Homo sapiens; design: scale not given: the % may be the effect or the level left
HUVEC [19] = assay: Antiapoptotic activity in HUVEC cells assessed as reduction in H2O2-induced Bax level by Western blotting relative to control; assay type: functional, cell-based; details: Homo sapiens
HUVEC [20] = assay: Antiapoptotic activity in HUVEC cells assessed as reduction in H2O2-induced p53 level by Western blotting relative to control; assay type: functional, cell-based; details: Homo sapiens
HUVEC [21] = assay: Antiapoptotic activity in HUVEC cells assessed as reduction in H2O2-induced PARP level by Western blotting relative to control; assay type: functional, cell-based; details: Homo sapiens
HUVEC [22] = assay: Antiapoptotic activity against H2O2-induced HUVEC cells assessed as increase in Bcl-2 level by Western blotting relative to control; assay type: functional, cell-based; details: Homo sapiens
HUVEC [23] = assay: Antiapoptotic activity in HUVEC cells assessed as […] in H2O2-induced pro-caspase-3 level by Western blotting; assay type: functional, cell-based; details: Homo sapiens
HUVEC [24] = assay: Antiapoptotic activity in HUVEC cells assessed as […] in H2O2-induced pro-caspase-9 level by Western blotting; assay type: functional, cell-based; details: Homo sapiens

Question: How did the Activity (HUVEC [1]) turn out when COC(=O)[C@H](CSC(=O)CCc1ccc2c(c1)OCO2)NC(=O)OC(C)(C)C was run?
Answer: The Activity was “inactive”.

Question: Which inhibition (HUVEC [1]) does the source give for COC(=O)[C@H](CSC(=O)/C(=C/c1ccc2c(c1)OCO2)OC(C)=O)NC(=O)OC(C)(C)C here?
Answer: The inhibition was “Active”.

Question: And the inhibition (HUVEC [2])?
Answer: Its inhibition is “Active”.

Question: What about the Activity (HUVEC [3]) of the same compound?
Answer: Its Activity is “Active”.

Question: What about the Activity (HUVEC [4]) of the same compound?
Answer: Its Activity is “Active”.

Question: With COC(=O)[C@H](CSCc1ccccc1)NC(=O)C(Cc1ccc2c(c1)OCO2)OC(C)=O (stereo partly drawn) as the compound, how does the inhibition (HUVEC [1]) read?
Answer: Its inhibition is “inactive”.

Question: For COC(=O)[C@@H](N)CSC(=O)CCc1ccc2c(c1)OCO2, which Activity (HUVEC [1]) is on record?
Answer: Its Activity is “inactive”.

Question: Which inhibition (HUVEC [1]) does the source give for COC(=O)[C@@H](N)CSC(=O)C(Cc1ccc(OC(C)=O)c(OC(C)=O)c1)OC(C)=O (stereo partly drawn) here?
Answer: The inhibition was “inactive”.

Question: Which inhibition (HUVEC [5]) does the source give for CC(=O)N[C@@H](CS)C(=O)O here?
Answer: Its inhibition is “Active”.

Question: And the inhibition (HUVEC [6])?
Answer: The inhibition was “Active”.

Question: What about the Activity (HUVEC [7]) of the same compound?
Answer: Its Activity is “Active”.

Question: And the Activity (HUVEC [8])?
Answer: The Activity was “Active”.

Question: For COC(=O)[C@@H](N)CSC(=O)CCc1ccc(OC(C)=O)c(OC(C)=O)c1, which Activity (HUVEC [1]) is on record?
Answer: The Activity was “inactive”.

Question: Which inhibition (HUVEC [1]) does the source give for COC(=O)[C@H](CSC(=O)C(Cc1ccc(OC(C)=O)c(OC(C)=O)c1)OC(C)=O)NC(=O)OC(C)(C)C (stereo partly drawn) here?
Answer: The inhibition was “inactive”.

Question: How did the inhibition (HUVEC [1]) turn out when COC(=O)[C@@H](N)CSC(=O)/C(=C/c1ccc2c(c1)OCO2)OC(C)=O was run?
Answer: Its inhibition is “Active”.

Question: Which results are given for COC(=O)[C@H](CSCc1ccccc1)NC(=O)CCc1ccc(OC(C)=O)c(OC(C)=O)c1?
Answer: inhibition (HUVEC [1]): Active; inhibition (HUVEC [2]): Active; Activity (HUVEC [3]): Active; Activity (HUVEC [4]): Active

Question: COC(=O)[C@H](CSC(=O)CCc1ccc(OC(C)=O)c(OC(C)=O)c1)NC(=O)OC(C)(C)C was tested. Which Activity (HUVEC [1]) did it give?
Answer: Its Activity is “inactive”.

Question: What does the source list for COC(=O)[C@H](CSC(=O)/C(=C/c1ccc(OC(C)=O)c(OC(C)=O)c1)OC(C)=O)NC(=O)OC(C)(C)C?
Answer: inhibition (HUVEC [1]): Active; inhibition (HUVEC [2]): Active; Activity (HUVEC [3]): Active; Activity (HUVEC [4]): Active

Question: With COC(=O)[C@H](CSCc1ccccc1)NC(=O)CCc1ccc2c(c1)OCO2 as the compound, how does the inhibition (HUVEC [1]) read?
Answer: Its inhibition is “inactive”.

Question: With COC(=O)[C@H](CSCc1ccccc1)NC(=O)/C(=C/c1ccc2c(c1)OCO2)OC(C)=O as the compound, how does the inhibition (HUVEC [1]) read?
Answer: Its inhibition is “inactive”.

Question: What does the source list for COC(=O)[C@H](CSCc1ccccc1)NC(=O)C(Cc1ccc(OC(C)=O)c(OC(C)=O)c1)OC(C)=O (stereo partly drawn)?
Answer: inhibition (HUVEC [1]): Active; inhibition (HUVEC [2]): Active; Activity (HUVEC [3]): Active; Activity (HUVEC [4]): Active

Question: For COC(=O)[C@H](CSCc1ccccc1)NC(=O)/C(=C/c1ccc(OC(C)=O)c(OC(C)=O)c1)OC(C)=O, which inhibition (HUVEC [1]) is on record?
Answer: The inhibition was “Active”.

Question: What about the Activity (HUVEC [9]) of the same compound?
Answer: Its Activity is “Dose-dependent effect”.

Question: And the inhibition (HUVEC [2])?
Answer: The inhibition was “Active”.

Question: What about the inhibition (HUVEC [10]) of the same compound?
Answer: The inhibition was “Dose-dependent effect”.

Question: And the Activity (HUVEC [3])?
Answer: Its Activity is “Active”.

Question: What about the Activity (HUVEC [4]) of the same compound?
Answer: The Activity was “Active”.

Question: What about the Activity (HUVEC [11]) of the same compound?
Answer: The Activity was “Dose-dependent effect”.

Question: And the Activity (HUVEC [12])?
Answer: The Activity was “Dose-dependent effect”.

Question: What about the Activity (HUVEC [13]) of the same compound?
Answer: The Activity was “Dose-dependent effect”.

Question: And the Activity (HUVEC [14])?
Answer: The Activity was “Dose-dependent effect”.

Question: What about the Activity (HUVEC [15]) of the same compound?
Answer: Its Activity is “Dose-dependent effect”.

Question: And the Activity (HUVEC [16])?
Answer: The Activity was 20.1%.

Question: What about the Activity (HUVEC [17]) of the same compound?
Answer: The Activity was 9%.

Question: What about the Activity (HUVEC [18]) of the same compound?
Answer: The Activity was 5.4%.

Question: And the Activity (HUVEC [19])?
Answer: Its Activity is “Dose-dependent effect”.

Question: And the Activity (HUVEC [20])?
Answer: Its Activity is “Dose-dependent effect”.

Question: And the Activity (HUVEC [21])?
Answer: Its Activity is “Dose-dependent effect”.

Question: What about the Activity (HUVEC [22]) of the same compound?
Answer: The Activity was “Dose-dependent effect”.

Question: What about the Activity (HUVEC [23]) of the same compound?
Answer: Its Activity is “Dose-dependent effect”.

Question: And the Activity (HUVEC [24])?
Answer: The Activity was “Dose-dependent effect”.

Question: With COC(=O)[C@H](CSC(=O)C(Cc1ccc2c(c1)OCO2)OC(C)=O)NC(=O)OC(C)(C)C (stereo partly drawn) as the compound, how does the inhibition (HUVEC [1]) read?
Answer: The inhibition was “inactive”.

Question: For COC(=O)[C@@H](N)CSC(=O)C(Cc1ccc2c(c1)OCO2)OC(C)=O (stereo partly drawn), which inhibition (HUVEC [1]) is on record?
Answer: The inhibition was “Active”.

Question: With COC(=O)[C@@H](N)CSC(=O)/C(=C/c1ccc(OC(C)=O)c(OC(C)=O)c1)OC(C)=O as the compound, how does the inhibition (HUVEC [1]) read?
Answer: The inhibition was “Active”.
